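These data come from cells grown in 96-well plates and exposed to compound for 48 hours at five concentrations. GI50 marks 50% less growth. TGI: concentration producing complete growth inhibition.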
How the values were obtained:
Assay in all cases: inhibition of tumour cell growth, NCI panel, 48 h
NCI/ADR-RES ovarian = test system: NCI/ADR-RES ovarian
NCI-H460 lung = test system: NCI-H460 lung
OVCAR-8 ovarian = test system: OVCAR-8 ovarian
SF-539 CNS = test system: SF-539 CNS
MDA-MB-231 breast = test system: MDA-MB-231 breast
SR leukemia = test system: SR leukemia
A549 NSCLC = test system: A549 NSCLC
KM12 colon = test system: KM12 colon
SN12C renal = test system: SN12C renal
SK-OV-3 ovarian = test system: SK-OV-3 ovarian
MCF7 breast = test system: MCF7 breast
SF-268 CNS = test system: SF-268 CNS
OVCAR-4 ovarian = test system: OVCAR-4 ovarian
SK-MEL-28 melanoma = test system: SK-MEL-28 melanoma
NCI-H23 lung = test system: NCI-H23 lung
NCI-H226 lung = test system: NCI-H226 lung
SK-MEL-2 melanoma = test system: SK-MEL-2 melanoma
HCC-2998 colon = test system: HCC-2998 colon
A498 renal = test system: A498 renal
HT29 colon = test system: HT29 colon
M14 melanoma = test system: M14 melanoma
K-562 leukemia = test system: K-562 leukemia
DU-145 prostate = test system: DU-145 prostate
UACC-62 melanoma = test system: UACC-62 melanoma
RPMI-8226 leukemia = test system: RPMI-8226 leukemia
LOX IMVI melanoma = test system: LOX IMVI melanoma
TK-10 renal = test system: TK-10 renal
RXF 393 renal = test system: RXF 393 renal
IGROV1 ovarian = test system: IGROV1 ovarian
MALME-3M melanoma = test system: MALME-3M melanoma
U251 CNS = test system: U251 CNS
MOLT-4 leukemia = test system: MOLT-4 leukemia
HCT-15 colon = test system: HCT-15 colon
COLO 205 colon = test system: COLO 205 colon
HOP-62 NSCLC = test system: HOP-62 NSCLC
HS 578T breast = test system: HS 578T breast
UO-31 renal = test system: UO-31 renal
ACHN renal = test system: ACHN renal
HL-60(TB) leukemia = test system: HL-60(TB) leukemia
SNB-75 CNS = test system: SNB-75 CNS
SNB-19 CNS = test system: SNB-19 CNS
SK-MEL-5 melanoma = test system: SK-MEL-5 melanoma
HCT-116 colon = test system: HCT-116 colon
EKVX NSCLC = test system: EKVX NSCLC
PC-3 prostate = test system: PC-3 prostate
SW-620 colon = test system: SW-620 colon
MDA-N = test system: MDA-N
NCI-H522 lung = test system: NCI-H522 lung
MDA-MB-435 = test system: MDA-MB-435
CAKI-1 renal = test system: CAKI-1 renal
CCRF-CEM leukemia = test system: CCRF-CEM leukemia
SF-295 CNS = test system: SF-295 CNS
T-47D breast = test system: T-47D breast
OVCAR-5 ovarian = test system: OVCAR-5 ovarian
UACC-257 melanoma = test system: UACC-257 melanoma
OVCAR-3 ovarian = test system: OVCAR-3 ovarian
786-0 renal = test system: 786-0 renal
HOP-92 NSCLC = test system: HOP-92 NSCLC
BT-549 breast = test system: BT-549 breast

COc1ccc(N2C(=O)C(=O)C3(CCCCC3)C2=O)c2ccccc12
TGI (NCI/ADR-RES ovarian): > 10000 nM | TGI (NCI-H460 lung): > 10000 nM | TGI (OVCAR-8 ovarian): > 10000 nM | TGI (SF-539 CNS): > 10000 nM | TGI (MDA-MB-231 breast): > 10000 nM | TGI (SR leukemia): > 10000 nM | TGI (A549 NSCLC): > 10000 nM | TGI (KM12 colon): > 10000 nM | TGI (SN12C renal): > 10000 nM | TGI (SK-OV-3 ovarian): > 10000 nM | TGI (MCF7 breast): > 10000 nM | TGI (SF-268 CNS): > 10000 nM | TGI (OVCAR-4 ovarian): > 10000 nM | TGI (SK-MEL-28 melanoma): > 10000 nM | TGI (NCI-H23 lung): > 10000 nM | TGI (NCI-H226 lung): > 10000 nM | TGI (SK-MEL-2 melanoma): > 10000 nM | TGI (HCC-2998 colon): > 10000 nM | TGI (A498 renal): > 10000 nM | TGI (HT29 colon): > 10000 nM | TGI (M14 melanoma): > 10000 nM | TGI (K-562 leukemia): > 10000 nM | TGI (DU-145 prostate): > 10000 nM | TGI (UACC-62 melanoma): > 10000 nM | TGI (RPMI-8226 leukemia): > 10000 nM | TGI (LOX IMVI melanoma): > 10000 nM | TGI (TK-10 renal): > 10000 nM | TGI (RXF 393 renal): > 10000 nM | TGI (IGROV1 ovarian): > 10000 nM | TGI (MALME-3M melanoma): > 10000 nM | TGI (U251 CNS): > 10000 nM | TGI (MOLT-4 leukemia): > 10000 nM | TGI (HCT-15 colon): > 10000 nM | TGI (COLO 205 colon): > 10000 nM | TGI (HOP-62 NSCLC): > 10000 nM | TGI (HS 578T breast): > 10000 nM | TGI (UO-31 renal): > 10000 nM | TGI (ACHN renal): > 10000 nM | TGI (HL-60(TB) leukemia): > 10000 nM | TGI (SNB-75 CNS): > 10000 nM | TGI (SNB-19 CNS): > 10000 nM | TGI (SK-MEL-5 melanoma): > 10000 nM | TGI (HCT-116 colon): > 10000 nM | TGI (EKVX NSCLC): > 10000 nM | TGI (PC-3 prostate): > 10000 nM | TGI (SW-620 colon): > 10000 nM | TGI (MDA-N): > 10000 nM | TGI (NCI-H522 lung): > 10000 nM | TGI (MDA-MB-435): > 10000 nM | TGI (CAKI-1 renal): > 10000 nM | TGI (CCRF-CEM leukemia): > 10000 nM | TGI (SF-295 CNS): > 10000 nM | TGI (T-47D breast): > 10000 nM | TGI (OVCAR-5 ovarian): > 10000 nM

COc1ccc(C(O)c2cc3c(N)c(C(=O)Nc4cccc(Br)c4C)sc3nc2C)cc1 (centres undefined)
GI50 (NCI/ADR-RES ovarian): 179 nM | TGI (NCI/ADR-RES ovarian): 2990 nM | GI50 (NCI-H460 lung): 121 nM | TGI (NCI-H460 lung): 1650 nM | GI50 (OVCAR-8 ovarian): 225 nM | TGI (OVCAR-8 ovarian): > 23000 nM | GI50 (SF-539 CNS): 131 nM | TGI (SF-539 CNS): 2880 nM | GI50 (MDA-MB-231 breast): 462 nM | TGI (MDA-MB-231 breast): 8960 nM | GI50 (SR leukemia): 125 nM | TGI (SR leukemia): > 33300 nM | GI50 (A549 NSCLC): 221 nM | TGI (A549 NSCLC): > 16800 nM | GI50 (KM12 colon): 152 nM | TGI (KM12 colon): 11700 nM | GI50 (SN12C renal): 246 nM | TGI (SN12C renal): > 33300 nM | GI50 (SK-OV-3 ovarian): 251 nM | TGI (SK-OV-3 ovarian): > 33300 nM | GI50 (MCF7 breast): 116 nM | TGI (MCF7 breast): > 33300 nM | GI50 (SF-268 CNS): 405 nM | TGI (SF-268 CNS): > 27800 nM | GI50 (OVCAR-4 ovarian): 2810 nM | TGI (OVCAR-4 ovarian): > 33300 nM | GI50 (SK-MEL-28 melanoma): 5200 nM | TGI (SK-MEL-28 melanoma): > 33300 nM | GI50 (NCI-H23 lung): 276 nM | TGI (NCI-H23 lung): > 33300 nM | GI50 (NCI-H226 lung): 989 nM | TGI (NCI-H226 lung): 17900 nM | GI50 (SK-MEL-2 melanoma): 1170 nM | TGI (SK-MEL-2 melanoma): > 33300 nM | GI50 (UACC-257 melanoma): 307 nM | TGI (UACC-257 melanoma): > 33300 nM | GI50 (HCC-2998 colon): 426 nM | TGI (HCC-2998 colon): 2840 nM | GI50 (A498 renal): 82 nM | TGI (A498 renal): 1280 nM | GI50 (HT29 colon): 120 nM | TGI (HT29 colon): 5770 nM | GI50 (M14 melanoma): 109 nM | TGI (M14 melanoma): > 24000 nM | GI50 (K-562 leukemia): 140 nM | TGI (K-562 leukemia): > 33300 nM | GI50 (DU-145 prostate): 135 nM | TGI (DU-145 prostate): 4540 nM | GI50 (OVCAR-3 ovarian): 103 nM | TGI (OVCAR-3 ovarian): 1080 nM | GI50 (UACC-62 melanoma): 141 nM | TGI (UACC-62 melanoma): > 31000 nM | GI50 (RPMI-8226 leukemia): 167 nM | TGI (RPMI-8226 leukemia): > 33300 nM | GI50 (LOX IMVI melanoma): 187 nM | TGI (LOX IMVI melanoma): 12400 nM | GI50 (TK-10 renal): 4210 nM | TGI (TK-10 renal): > 24400 nM | GI50 (RXF 393 renal): 94.4 nM | TGI (RXF 393 renal): 2220 nM | GI50 (IGROV1 ovarian): 375 nM | TGI (IGROV1 ovarian): 18800 nM | GI50 (MALME-3M melanoma): 199 nM | TGI (MALME-3M melanoma): > 33300 nM | GI50 (U251 CNS): 164 nM | TGI (U251 CNS): 8610 nM | GI50 (MOLT-4 leukemia): 177 nM | TGI (MOLT-4 leukemia): > 33300 nM | GI50 (HCT-15 colon): 138 nM | TGI (HCT-15 colon): > 14400 nM | GI50 (COLO 205 colon): 1040 nM | TGI (COLO 205 colon): > 11000 nM | GI50 (HOP-62 NSCLC): 287 nM | TGI (HOP-62 NSCLC): > 30200 nM | GI50 (HS 578T breast): 106 nM | TGI (HS 578T breast): 3750 nM | GI50 (UO-31 renal): 261 nM | TGI (UO-31 renal): > 33300 nM | GI50 (ACHN renal): 216 nM | TGI (ACHN renal): > 26400 nM | GI50 (786-0 renal): 254 nM | TGI (786-0 renal): > 33300 nM | GI50 (HOP-92 NSCLC): 261 nM | TGI (HOP-92 NSCLC): 18000 nM | GI50 (HL-60(TB) leukemia): 104 nM | TGI (HL-60(TB) leukemia): 2340 nM | GI50 (SNB-75 CNS): 81.6 nM | TGI (SNB-75 CNS): 11200 nM | GI50 (SNB-19 CNS): 211 nM | TGI (SNB-19 CNS): > 33300 nM | GI50 (SK-MEL-5 melanoma): 143 nM | TGI (SK-MEL-5 melanoma): 922 nM | GI50 (BT-549 breast): 479 nM | TGI (BT-549 breast): 15400 nM | GI50 (HCT-116 colon): 141 nM | TGI (HCT-116 colon): 7460 nM | GI50 (EKVX NSCLC): 259 nM | TGI (EKVX NSCLC): > 33300 nM | GI50 (PC-3 prostate): 618 nM | TGI (PC-3 prostate): 18400 nM | GI50 (SW-620 colon): 124 nM | TGI (SW-620 colon): > 33300 nM | GI50 (NCI-H522 lung): 157 nM | GI50 (MDA-MB-435): 66.5 nM | TGI (MDA-MB-435): 149 nM | GI50 (CAKI-1 renal): 151 nM | TGI (CAKI-1 renal): 18100 nM | GI50 (CCRF-CEM leukemia): 139 nM | TGI (CCRF-CEM leukemia): > 33300 nM | GI50 (SF-295 CNS): 133 nM | TGI (SF-295 CNS): 6140 nM | GI50 (T-47D breast): 346 nM | TGI (T-47D breast): > 33300 nM | GI50 (OVCAR-5 ovarian): 666 nM | TGI (OVCAR-5 ovarian): > 25600 nM
